Molecular target: T1, AtGTR1 (Arabidopsis thaliana, UniProt Q944G5)
T1 construct: A library of Arabidopsis transporters available as full length cDNAs from the RIKEN bioresource center; expressed in transfected cells; host or cells: Xenopus oocytes injected with in vitro transcribed cRNA
T1 sequence (Q944G5 31-636 limits assumed): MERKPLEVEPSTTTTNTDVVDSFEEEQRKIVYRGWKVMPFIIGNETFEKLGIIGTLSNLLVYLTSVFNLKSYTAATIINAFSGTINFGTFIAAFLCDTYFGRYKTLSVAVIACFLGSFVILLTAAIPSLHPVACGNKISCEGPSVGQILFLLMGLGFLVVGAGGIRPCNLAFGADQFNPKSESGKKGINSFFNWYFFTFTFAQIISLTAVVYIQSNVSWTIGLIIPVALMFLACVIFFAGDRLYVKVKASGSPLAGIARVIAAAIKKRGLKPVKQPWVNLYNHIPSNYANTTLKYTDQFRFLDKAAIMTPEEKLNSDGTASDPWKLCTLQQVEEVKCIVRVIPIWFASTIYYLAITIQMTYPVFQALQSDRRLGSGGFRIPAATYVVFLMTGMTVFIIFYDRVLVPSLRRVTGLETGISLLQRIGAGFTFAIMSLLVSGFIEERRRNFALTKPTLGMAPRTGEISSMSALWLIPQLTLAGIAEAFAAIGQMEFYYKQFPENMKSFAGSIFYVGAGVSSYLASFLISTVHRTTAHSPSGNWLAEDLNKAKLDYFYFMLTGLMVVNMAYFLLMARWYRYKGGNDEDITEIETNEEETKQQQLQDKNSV
Test: Uptake of C14-labeled pOHBG in AtGTR1 expressing oocytes in presence of excess competitor
Assay type: cell-based
Conditions: 50× excess unlabeled competitor, AtGTR1, pH 5
Description: FIG. 3: Biochemical analysis of AtGTR1 and 2 mediated GSL transport in Xenopus oocytes. A and B, pH dependence of AtGTR-mediated GSL transport. A, AtGTR2 mediated 4-MTB uptake measured by LC-MS analysis of oocyte extracts, n=3 oocytes. B, AtGTR1 currents induced by 1 mM 4-MTB were measured at different membrane potentials at pH 5 ([…]), pH 6 (♦), and pH 7 (▴). Currents were normalized to the current induced at pH 5 at −60 mV, error bars are SD, n=4 oocytes. C and D, kinetic analysis of AtGTR-mediated glucosinolate transport. […]
The substrate specificity investigations were extended to include substrates previously identified for the NRT/PTR transporter family namely di- and tripeptides and nitrate. […] However, perfusing with 1 mM NO3^− did result in currents but these amounted only to 1/10th of currents measured when perfusing with 100 μM 4-MTB (FIG. 3F). […]
For assays with radiolabeled substrates, single oocytes were ruptured in 100 μl 10% SDS in 4 ml scintillation vials by shaking for 20-30 minutes. 2.5 ml EcoScint™ scintillation fluid (National Diagnostics) was added, and imported compounds quantified by scintillation counting. For assays with unlabeled substrates, oocyte extracts were analysed by LC-MS. Oocytes were analyzed in batches of 5 oocytes per repetition. […]

CSCCCC/C(=N/OS(=O)(=O)O)S[C@@H]1O[C@H](CO)[C@@H](O)[C@H](O)[C@H]1O [4-MTB, 4-methylthiobutyl glucosinolate]
effect on uptake of 40 μM C14-labeled pOHBG: reduced the uptake of pOHBG to background levels
